Experimental data from patent publication US9695155B2, “Herbicidal substituted pyrimidinyloxy benzene compounds” (E. I. DU PONT DE NEMOURS AND COMPANY, priority 2013, dated 2017).

Assays:
[1] = system: bluegrass; test: Test D postemergence; format: in vivo, Poa annua; conditions: Poa annua, post-emergence, Postemergence, scale 0 to 100 (0 no effect, 100 complete control), read-out: Plant response rating, Bluegrass
Summary of the method: (§1)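 Values are 0–100 visual control ratings (0 none, 100 complete) given 7–21 days after application. Soil for preemergence was silt loam; postemergence plants stood 2–18 cm tall.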

[2] = system: Italian ryegrass; test: Test D postemergence; format: in vivo, Lolium multiflorum; conditions: Lolium multiflorum, post-emergence, scale 0 to 100 (0 no effect, 100 complete control), read-out: Plant response rating, Ryegrass, Italian
Summary of the method: as §1

[3] = system: wild mustard; test: Test D preemergence; format: in vivo, Sinapis arvensis; conditions: Brassica, pre-emergence, scale 0-100, read-out: Plant response rating, Mustard, Wild
Summary of the method: as §1

[4] = system: deadnettle; test: Test D preemergence; format: in vivo, Lamium amplexicaule; conditions: Lamium amplexicaule, pre-emergence, scale 0-100, read-out: Plant response rating, Deadnettle
Summary of the method: as §1

[5] = system: sandbur; test: Test E postemergence; format: in vivo, Cenchrus echinatus; conditions: Cenchrus echinatus, post-emergence, read-out: Plant response rating, Sandbur
Summary of the method: (§2)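 Test chemicals formulated in a non-phytotoxic solvent mixture containing a surfactant were applied preemergence to seeds in silt loam soil or postemergence to plants at the 1- to 4-leaf stage in potting mix. After 14 to 21 days in a greenhouse, injury was visually rated against controls on a 0-100 scale (0 = no effect, 100 = complete control).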

[6] = system: winter wheat; test: Test D preemergence; format: in vivo, Triticum aestivum; conditions: Triticum aestivum, pre-emergence
Summary of the method: as §1

[7] = system: spring wheat; test: Test D preemergence; format: in vivo, Triticum aestivum; conditions: Triticum aestivum, pre-emergence
Summary of the method: as §1

[8] = system: field violet; test: Test D postemergence; format: in vivo, Viola arvensis; conditions: Viola arvensis, post-emergence, scale 0 to 100 (0 no effect, 100 complete control), read-out: Plant response rating, Field Violet
Summary of the method: as §1

[9] = system: galium; test: Test D postemergence; format: in vivo, Galium aparine; conditions: Galium, post-emergence, scale 0 to 100 (0 no effect, 100 complete control), read-out: Plant response rating, Galium
Summary of the method: as §1

[10] = system: corn; test: Test E postemergence; format: in vivo, Zea mays; conditions: Zea mays, post-emergence
Summary of the method: as §2

[11] = system: oilseed rape; test: Test D postemergence; format: in vivo, Brassica napus; conditions: Brassica napus, post-emergence, scale 0 to 100 (0 no effect, 100 complete control), read-out: Plant response rating, Oilseed Rape
Summary of the method: as §1

[12] = system: soybean; test: Test E postemergence; format: in vivo, Glycine max; conditions: Glycine max, post-emergence
Summary of the method: as §2

[13] = system: arrowleaf sida; test: Test E postemergence; format: in vivo, Sida rhombifolia; conditions: Sida rhombifolia, post-emergence, read-out: Plant response rating, Arrowleaf Sida
Summary of the method: as §2

[14] = Postemergence, 31 g ai/ha, scale 0 to 100
[15] = Postemergence, 62 g ai/ha, scale 0 to 100
[16] = Postemergence, 125 g ai/ha, scale 0 to 100
[17] = Postemergence, 250 g ai/ha, scale 0 to 100
[18] = postemergence, 16 g ai/ha, scale 0 to 100, 0 no effect, 100 complete control

## N#Cc1cccc(Oc2ncc(Br)cn2)c1-n1cc(C(F)(F)F)cn1 [Compound 59, 3-[(5-bromo-2-pyrimidinyl)oxy]-2-[4-(trifluoromethyl)-1H-pyrazol-1-yl]benzonitrile]
[1]; 31 g ai/ha
  pest or weed control at 31 g/ha: 15%
[1]; 62 g ai/ha
  pest or weed control at 62 g/ha: 15%
[1]; 125 g ai/ha
  pest or weed control at 125 g/ha: 20%
[1]; 250 g ai/ha
  pest or weed control at 250 g/ha: 40%
[2]; 31 g ai/ha
  pest or weed control at 31 g/ha: 10%
[2]; 62 g ai/ha
  pest or weed control at 62 g/ha: 10%
[2]; 125 g ai/ha
  pest or weed control at 125 g/ha: 40%
[2]; 250 g ai/ha
  pest or weed control at 250 g/ha: 50%
[3]; 31 g ai/ha
  pest or weed control at 31 g/ha: 15%
[3]; 62 g ai/ha
  pest or weed control at 62 g/ha: 100%
[3]; 125 g ai/ha
  pest or weed control at 125 g/ha: 100%
[3]; 250 g ai/ha
  pest or weed control at 250 g/ha: 100%
[4]; 31 g ai/ha
  pest or weed control at 31 g/ha: 100%
[4]; 62 g ai/ha
  pest or weed control at 62 g/ha: 100%
[4]; 125 g ai/ha
  pest or weed control at 125 g/ha: 100%
[4]; 250 g ai/ha
  pest or weed control at 250 g/ha: 100%
[5]; [14]
  pest or weed control at 31 g/ha: 0%
[5]; [15]
  pest or weed control at 62 g/ha: 0%
[5]; [16]
  pest or weed control at 125 g/ha: 10%
[5]; [17]
  pest or weed control at 250 g/ha: 20%
[5]; [18]
  pest or weed control at 16 g/ha: 0%
[6]; 31 g ai/ha, scale 0 (no effect) to 100 (complete control), read-out: Plant response rating, Wheat, Winter
  plant injury at 31 g/ha: 0%
[6]; 62 g ai/ha, scale 0-100, read-out: Plant response rating, Wheat, Winter
  plant injury at 62 g/ha: 5%
[6]; 125 g ai/ha, scale 0-100, read-out: Plant response rating, Wheat, Winter
  plant injury at 125 g/ha: 5%
[6]; 250 g ai/ha, scale 0-100, read-out: Plant response rating, Wheat, Winter
  plant injury at 250 g/ha: 35%
[7]; 31 g ai/ha, scale 0 (no effect) to 100 (complete control), read-out: Plant response rating, Wheat, Spring
  plant injury at 31 g/ha: 0%
[7]; 62 g ai/ha, scale 0-100, read-out: Plant response rating, Wheat, Spring
  plant injury at 62 g/ha: 5%
[7]; 125 g ai/ha, scale 0-100, read-out: Plant response rating, Wheat, Spring
  plant injury at 125 g/ha: 40%
[7]; 250 g ai/ha, scale 0-100, read-out: Plant response rating, Wheat, Spring
  plant injury at 250 g/ha: 55%
[8]; 31 g ai/ha
  pest or weed control at 31 g/ha: 100%
[8]; 62 g ai/ha
  pest or weed control at 62 g/ha: 100%
[8]; 125 g ai/ha
  pest or weed control at 125 g/ha: 100%
[8]; 250 g ai/ha
  pest or weed control at 250 g/ha: 100%
[9]; 31 g ai/ha
  pest or weed control at 31 g/ha: 75%
[9]; 62 g ai/ha
  pest or weed control at 62 g/ha: 80%
[9]; 125 g ai/ha
  pest or weed control at 125 g/ha: 95%
[9]; 250 g ai/ha
  pest or weed control at 250 g/ha: 95%
[10]; [14]
  corn plant response (injury) rating, 0-100 at 31 g/ha: 5%
[10]; [15]
  corn plant response (injury) rating, 0-100 at 62 g/ha: 10%
[10]; [16]
  corn plant response (injury) rating, 0-100 at 125 g/ha: 10%
[10]; [17]
  corn plant response (injury) rating, 0-100 at 250 g/ha: 15%
[10]; [18]
  corn plant response (injury) rating, 0-100 at 16 g/ha: 5%
[11]; 31 g ai/ha
  plant injury at 31 g/ha: 65%
[11]; 62 g ai/ha
  plant injury at 62 g/ha: 65%
[11]; 125 g ai/ha
  plant injury at 125 g/ha: 75%
[11]; 250 g ai/ha
  plant injury at 250 g/ha: 100%
[12]; [14]
  plant response (crop injury) rating, soybean, 0-100 scale at 31 g/ha: 65%
[12]; [15]
  plant response (crop injury) rating, soybean, 0-100 scale at 62 g/ha: 95%
[12]; [16]
  plant response (crop injury) rating, soybean, 0-100 scale at 125 g/ha: 95%
[12]; [17]
  plant response (crop injury) rating, soybean, 0-100 scale at 250 g/ha: 98%
[12]; [18]
  plant response (crop injury) rating, soybean, 0-100 scale at 16 g/ha: 60%
[13]; [14]
  pest or weed control at 31 g/ha: 70%
[13]; [15]
  pest or weed control at 62 g/ha: 80%
[13]; [16]
  pest or weed control at 125 g/ha: 85%
[13]; [17]
  pest or weed control at 250 g/ha: 90%
[13]; [18]
  pest or weed control at 16 g/ha: 65%
